pIC50, pKd, pKi: −log10 of the molar value. The source made the active and inactive calls. The calls are words filed in the database; no cut-off is given here.
Key:
[1] = molecular target: T1, Muscarinic acetylcholine receptor M1 (Homo sapiens, UniProt P11229); experiment: Displacement of [3H]N-methylscopolamine from human muscarinic M1 receptor expressed in human HEK293T cell membranes by radioligand competition binding based analysis; parameters: species or system Cell membrane
T1 sequence (P11229 whole entry): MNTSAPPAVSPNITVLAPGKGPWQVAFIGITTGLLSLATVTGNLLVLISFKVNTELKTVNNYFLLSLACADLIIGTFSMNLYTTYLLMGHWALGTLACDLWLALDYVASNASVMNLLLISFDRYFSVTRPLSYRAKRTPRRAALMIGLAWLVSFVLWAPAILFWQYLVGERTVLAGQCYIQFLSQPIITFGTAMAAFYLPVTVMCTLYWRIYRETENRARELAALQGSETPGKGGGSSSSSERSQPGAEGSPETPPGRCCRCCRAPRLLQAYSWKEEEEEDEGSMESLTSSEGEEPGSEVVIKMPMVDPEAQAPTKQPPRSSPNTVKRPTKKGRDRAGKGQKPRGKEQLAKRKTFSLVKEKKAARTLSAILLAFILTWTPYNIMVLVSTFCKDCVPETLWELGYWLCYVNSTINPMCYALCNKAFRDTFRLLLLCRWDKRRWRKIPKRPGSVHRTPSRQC

[2] = molecular target: T2, Muscarinic acetylcholine receptor M3 (Homo sapiens, UniProt P20309); experiment: Binding affinity to human muscarinic M3 receptor expressed in CHO cells assessed as binding to cell membrane at 60 nM measured for 60 mins by Hoechst H33342 staining based confocal microscopy; assay type: cell membranes
Target sequence in this assay (P20309 whole entry, looked up): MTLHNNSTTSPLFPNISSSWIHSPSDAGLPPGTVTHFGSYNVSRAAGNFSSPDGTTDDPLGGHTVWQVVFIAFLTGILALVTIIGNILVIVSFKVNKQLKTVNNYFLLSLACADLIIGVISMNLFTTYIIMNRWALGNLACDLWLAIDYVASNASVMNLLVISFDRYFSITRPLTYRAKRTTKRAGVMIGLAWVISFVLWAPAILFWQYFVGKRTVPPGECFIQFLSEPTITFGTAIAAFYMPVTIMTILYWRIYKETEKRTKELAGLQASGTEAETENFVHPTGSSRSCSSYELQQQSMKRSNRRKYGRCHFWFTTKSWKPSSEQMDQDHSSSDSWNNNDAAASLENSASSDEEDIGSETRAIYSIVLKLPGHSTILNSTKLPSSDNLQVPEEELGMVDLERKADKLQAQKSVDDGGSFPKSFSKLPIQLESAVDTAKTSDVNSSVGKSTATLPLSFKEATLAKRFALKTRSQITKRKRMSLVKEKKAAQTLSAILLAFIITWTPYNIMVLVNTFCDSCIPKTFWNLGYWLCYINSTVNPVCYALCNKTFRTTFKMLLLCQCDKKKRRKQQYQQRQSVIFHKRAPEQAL

[3] = molecular target: T2, Muscarinic acetylcholine receptor M3; experiment: Displacement of tiotropium bromide from human muscarinic M3 receptor expressed in CHO cells incubated for 4 hrs by flow cytometric competition binding assay; assay type: cell-based; details: for pKi: read-out: Ki
Target sequence in this assay (P20309 whole entry): as the sequence (P20309 whole entry, looked up) above

[4] = molecular target: T3, Muscarinic acetylcholine receptor M4 (Homo sapiens, UniProt P08173); experiment: Displacement of [3H]N-methylscopolamine from human muscarinic M4 receptor expressed in human HEK293T cell membranes by radioligand competition binding based analysis; parameters: species or system Cell membrane
T3 sequence (P08173 whole entry): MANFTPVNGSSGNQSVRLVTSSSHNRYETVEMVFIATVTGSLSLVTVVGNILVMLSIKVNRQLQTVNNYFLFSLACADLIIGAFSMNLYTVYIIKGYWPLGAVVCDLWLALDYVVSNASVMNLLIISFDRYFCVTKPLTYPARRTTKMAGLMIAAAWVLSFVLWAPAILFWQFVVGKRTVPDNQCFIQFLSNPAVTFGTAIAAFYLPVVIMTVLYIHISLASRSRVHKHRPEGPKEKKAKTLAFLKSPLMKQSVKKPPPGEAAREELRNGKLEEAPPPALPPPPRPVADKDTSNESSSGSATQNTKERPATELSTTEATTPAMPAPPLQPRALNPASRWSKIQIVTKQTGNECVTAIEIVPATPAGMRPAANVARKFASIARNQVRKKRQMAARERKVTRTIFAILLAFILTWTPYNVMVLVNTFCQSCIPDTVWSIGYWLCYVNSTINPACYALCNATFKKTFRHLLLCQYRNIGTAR

[5] = molecular target: T2, Muscarinic acetylcholine receptor M3; experiment: Binding affinity to human muscarinic M3 receptor expressed in CHO cells assessed as binding to cell membrane at 60 nM measured for 60 mins in presence of atropine by Hoechst H33342 staining based confocal microscopy; assay type: cell membranes
Target sequence in this assay (P20309 whole entry, looked up): as the sequence (P20309 whole entry, looked up) above

[6] = molecular target: T2, Muscarinic acetylcholine receptor M3; experiment: Binding affinity to saturated human muscarinic M3 expressed in CHO cells assessed as dissociation constant incubated for 2 hrs by flow cytometry; assay type: cell-based
Target sequence in this assay (P20309 whole entry): as the sequence (P20309 whole entry, looked up) above

[7] = molecular target: T2, Muscarinic acetylcholine receptor M3; experiment: Binding affinity to human muscarinic M3 receptor expressed in human HEK293T cells co-expressing beta-arrestin2 assessed as inhibition of carbachol-induced beta-arrestin recruitment preincubated for 30 mins followed by carbachol stimulation and measured after 90 mins by PathHunter assay; assay type: cell-based
Target sequence in this assay (P20309 whole entry): as the sequence (P20309 whole entry, looked up) above

[8] = molecular target: T2, Muscarinic acetylcholine receptor M3; experiment: Binding affinity to saturated human muscarinic M3 expressed in CHO cells assessed as dissociation constant incubated for 2 hrs in presence of atropine by flow cytometry; assay type: cell-based
Target sequence in this assay (P20309 whole entry): as the sequence (P20309 whole entry, looked up) above

[9] = molecular target: T1, Muscarinic acetylcholine receptor M1; experiment: Binding affinity to saturated human muscarinic M1 expressed in CHO cells assessed as dissociation constant incubated for 2 hrs in presence of atropine by flow cytometry; assay type: cell-based
[10] = molecular target: T1, Muscarinic acetylcholine receptor M1; experiment: Binding affinity to saturated human muscarinic M1 expressed in CHO cells assessed as dissociation constant incubated for 2 hrs by flow cytometry; assay type: cell-based
[11] = molecular target: T2, Muscarinic acetylcholine receptor M3; experiment: Displacement of atropine from human muscarinic M3 receptor expressed in CHO cells incubated for 2 hrs by flow cytometric competition binding assay; assay type: cell-based; details: for pKi: read-out: Ki; for Ki: read-out: pKi (converted)
Target sequence in this assay (P20309 whole entry): as the sequence (P20309 whole entry, looked up) above

[12] = molecular target: T4, Muscarinic acetylcholine receptor M2 (Homo sapiens, UniProt P08172); experiment: Displacement of [3H]N-methylscopolamine from human muscarinic M2 receptor expressed in human HEK293T cell membranes by radioligand competition binding based analysis; parameters: species or system Cell membrane
T4 sequence (P08172 whole entry): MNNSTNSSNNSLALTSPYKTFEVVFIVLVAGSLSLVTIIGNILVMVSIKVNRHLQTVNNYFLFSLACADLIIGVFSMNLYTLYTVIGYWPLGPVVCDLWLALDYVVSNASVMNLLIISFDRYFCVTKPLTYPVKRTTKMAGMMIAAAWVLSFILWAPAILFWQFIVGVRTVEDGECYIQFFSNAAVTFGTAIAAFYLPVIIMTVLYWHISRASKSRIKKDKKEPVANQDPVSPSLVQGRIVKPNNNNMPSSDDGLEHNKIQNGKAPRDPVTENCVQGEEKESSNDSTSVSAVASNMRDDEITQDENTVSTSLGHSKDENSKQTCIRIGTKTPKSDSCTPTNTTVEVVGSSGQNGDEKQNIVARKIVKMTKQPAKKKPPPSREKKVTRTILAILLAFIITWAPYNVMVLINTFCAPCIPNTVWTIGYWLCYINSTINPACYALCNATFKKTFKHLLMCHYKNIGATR

[13] = molecular target: T2, Muscarinic acetylcholine receptor M3; experiment: Binding affinity to human muscarinic M3 receptor expressed in CHO cells assessed as binding to cell membrane at 100 nM measured for 60 mins in presence of atropine by Hoechst H33342 staining based confocal microscopy; assay type: cell membranes
Target sequence in this assay (P20309 whole entry, looked up): as the sequence (P20309 whole entry, looked up) above

[14] = molecular target: T2, Muscarinic acetylcholine receptor M3; experiment: Binding affinity to human muscarinic M3 expressed in CHO cells assessed as association rate constant incubated for 1 to 75 mins in presence of atropine by flow cytometry; assay type: cell-based; details: time 1-75 min
Target sequence in this assay (P20309 whole entry, looked up): as the sequence (P20309 whole entry, looked up) above

Homo sapiens [15] = organism: Homo sapiens; experiment: Selectivity ratio, Ki for displacement of [3H]N-methylscopolamine from human muscarinic M4 receptor expressed in human HEK293T cell membranes to Ki for displacement of [3H]N-methylscopolamine from human muscarinic M3 receptor expressed in human HEK293T cell membranes
Homo sapiens [16] = organism: Homo sapiens; experiment: Selectivity ratio, Ki for displacement of [3H]N-methylscopolamine from human muscarinic M5 receptor expressed in human HEK293T cell membranes to Ki for displacement of [3H]N-methylscopolamine from human muscarinic M3 receptor expressed in human HEK293T cell membranes
[17] = molecular target: T2, Muscarinic acetylcholine receptor M3; experiment: Binding affinity to human muscarinic M3 receptor expressed in human HEK293T cells assessed as inhibition of carbachol-induced G-protein signaling by measuring inositol accumulation preincubated for 30 mins followed by carbachol stimulation and measured after 90 mins by HTRF assay; assay type: cell-based
Target sequence in this assay (P20309 whole entry): as the sequence (P20309 whole entry, looked up) above

[18] = molecular target: T2, Muscarinic acetylcholine receptor M3; experiment: Binding affinity to human muscarinic M3 receptor expressed in CHO cells assessed as binding to cell membrane at 100 nM measured for 60 mins by Hoechst H33342 staining based confocal microscopy; assay type: cell membranes
Target sequence in this assay (P20309 whole entry, looked up): as the sequence (P20309 whole entry, looked up) above

[19] = molecular target: T5, Muscarinic acetylcholine receptor M5 (Homo sapiens, UniProt P08912); experiment: Displacement of [3H]N-methylscopolamine from human muscarinic M5 receptor expressed in human HEK293T cell membranes by radioligand competition binding based analysis; parameters: species or system Cell membrane
T5 sequence (P08912 whole entry): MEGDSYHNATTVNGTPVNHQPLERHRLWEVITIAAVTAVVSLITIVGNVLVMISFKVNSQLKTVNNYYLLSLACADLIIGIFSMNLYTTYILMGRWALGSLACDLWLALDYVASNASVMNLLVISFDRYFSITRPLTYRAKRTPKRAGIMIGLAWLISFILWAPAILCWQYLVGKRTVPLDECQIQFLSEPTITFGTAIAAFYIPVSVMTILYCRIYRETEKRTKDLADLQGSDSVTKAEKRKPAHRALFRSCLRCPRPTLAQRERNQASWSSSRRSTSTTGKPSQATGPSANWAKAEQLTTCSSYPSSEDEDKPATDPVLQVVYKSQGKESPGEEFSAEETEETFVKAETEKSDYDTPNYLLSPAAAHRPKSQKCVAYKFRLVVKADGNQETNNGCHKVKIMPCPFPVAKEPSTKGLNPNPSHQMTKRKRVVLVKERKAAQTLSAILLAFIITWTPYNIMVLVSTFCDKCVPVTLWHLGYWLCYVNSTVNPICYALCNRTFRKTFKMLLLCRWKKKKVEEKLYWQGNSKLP

[20] = molecular target: T2, Muscarinic acetylcholine receptor M3; experiment: Displacement of [3H]N-methylscopolamine from human muscarinic M3 receptor expressed in human HEK293T cell membranes by radioligand competition binding based analysis; parameters: species or system Cell membrane
CHO-K1 = experiment: Cytotoxicity against Chinese hamster CHO-K1 cells assessed as reduction in cell viability upto 1 uM by crystal violet staining based multiplate reader analysis; assay type: toxicity, Cricetulus griseus; details: cho-k1, 1 µM
[21] = molecular target: T2, Muscarinic acetylcholine receptor M3; experiment: Binding affinity to human muscarinic M3 expressed in CHO cells assessed as dissociation rate constant preincubated for 55 mins in dark followed by atropine addition and measured after 1 to 152 mins by flow cytometry; assay type: cell-based; details: time 56-207 min
Target sequence in this assay (P20309 whole entry, looked up): as the sequence (P20309 whole entry, looked up) above

[22] = molecular target: T2, Muscarinic acetylcholine receptor M3; experiment: Binding affinity to human muscarinic M3 expressed in CHO cells assessed as dissociation rate constant preincubated for 20 mins in dark followed by atropine addition and measured after 1 to 130 mins by flow cytometry; assay type: cell-based; details: time lower […], time upper 150.0 min
[23] = molecular target: T2, Muscarinic acetylcholine receptor M3; experiment: Binding affinity to human muscarinic M3 expressed in CHO cells assessed as association rate constant incubated for 0.5 to 36 mins in presence of atropine by flow cytometry; assay type: cell-based; details: time lower 0.5 min, time upper […]

Compound	pKi [1]	Activity [2]	pKi [3]	pKi [4]	Activity [5]	pKd [6]	pIC50 [7]	pKd [8]	pKd [9]	pKd [10]	pKi [11]	Ki [11]	pKi [12]	Activity [13]	Selectivity ratio (Homo sapiens [15])	Selectivity ratio (Homo sapiens [16])	pIC50 [17]	Activity [18]	pKi [19]	pKi [20]	also measured
CC1(C)C(/C=C/C=C/C=C2/N(CCCCS(=O)(=O)O)c3ccccc3C2(C)C)=[N+](CCCCCC(=O)NCCCCCCCCN2CCC(OC(=O)Nc3ccc(F)cc3-c3ccc(F)c(Cl)c3)CC2)c2ccc(S(=O)(=O)[O-])cc21	9.14	Active	9.85	9.06	inactive	7.27	6.35	7.30	8.19	8.22	8.62	2.14 nM	8.02	inactive	0.06	0.39	6.52	Active	8.26	7.85	ka [14]: 0.09 min⁻¹; Activity (CHO-K1): Non-Toxic; Kdiss [21]: 0.000433 s⁻¹
CN1/C(=C/C=C/C=C/C2=[N+](CCCCCC(=O)NCCCCCCN3CCC(OC(=O)Nc4ccc(F)cc4-c4ccc(F)c(Cl)c4)CC3)c3ccccc3C2(C)C)C(C)(C)c2ccccc21	8.57	–	–	8.27	–	–	–	–	–	–	–	–	8.23	–	2	15	–	–	7.40	8.57	–
CN(C)c1ccc2c(-c3ccc(-c4cn(CCCCCn5cc(CCCCCCN6CCC(COC(=O)Nc7ccc(F)cc7-c7ccc(F)c(Cl)c7)CC6)nn5)nn4)cc3C(=O)[O-])c3ccc(=[N+](C)C)cc-3oc2c1	8.82	Active	9.82	8.85	inactive	7.64	6.37	7.62	8.08	8.14	8.64	2.19 nM	7.96	inactive	1.2	6.2	6.89	Active	8.13	8.92	Ki ([3]; read-out: pKi (converted)): 0.132 nM; Kdiss [22]: 0.0004 s⁻¹; ka [23]: 0.37 min⁻¹; Activity (CHO-K1): Non-Toxic
